The text below walks through data of PMC2990756, “Quantitative High-Throughput Screening Identifies 8-Hydroxyquinolines as Cell-Active Histone Demethylase Inhibitors” (PLoS ONE, 2010).

For data set [1], the target named is T1, JMJD2E (Homo sapiens, UniProt B2RXH2).
T1 sequence (B2RXH2 1-337): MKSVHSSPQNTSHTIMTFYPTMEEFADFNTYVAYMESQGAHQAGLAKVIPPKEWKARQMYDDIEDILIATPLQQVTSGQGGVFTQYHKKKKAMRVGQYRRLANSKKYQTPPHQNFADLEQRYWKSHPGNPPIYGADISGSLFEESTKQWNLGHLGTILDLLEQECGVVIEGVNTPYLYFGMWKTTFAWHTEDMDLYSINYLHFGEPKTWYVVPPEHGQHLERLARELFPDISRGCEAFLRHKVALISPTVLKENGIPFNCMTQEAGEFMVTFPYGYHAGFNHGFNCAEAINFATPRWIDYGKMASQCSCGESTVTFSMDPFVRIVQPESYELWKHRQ
Kind of data set: MALDI-TOF MS demethylation assay, JMJD2E.
Experimental: Initially, JMJD2, Fe(II), ascorbate and inhibitors were pre-incubated for 15 min prior to the addition of peptide and 2OG. The reaction was incubated for 30 min before 1∶1 quenching with methanol followed by addition of four volumes of 20 mM triammonium citrate. […] The diluted assay mixture (1 µL) from JMJD2 and PHD2 assays were mixed with 1 µL of α-cyano-4-hydroxycinnamic acid and 1 µL of FIH assay mixture was mixed with 1 µL of sinapinic acid matrix, and assessed by matrix-assisted laser desorption/ionization-time of flight (MALDI-TOF).

The target in data set [2] is FIH (Homo sapiens, UniProt Q9NWT6). Kind of data set: MALDI-TOF MS peptide hydroxylation assay, FIH.
FIH, sequence (Q9NWT6 whole entry): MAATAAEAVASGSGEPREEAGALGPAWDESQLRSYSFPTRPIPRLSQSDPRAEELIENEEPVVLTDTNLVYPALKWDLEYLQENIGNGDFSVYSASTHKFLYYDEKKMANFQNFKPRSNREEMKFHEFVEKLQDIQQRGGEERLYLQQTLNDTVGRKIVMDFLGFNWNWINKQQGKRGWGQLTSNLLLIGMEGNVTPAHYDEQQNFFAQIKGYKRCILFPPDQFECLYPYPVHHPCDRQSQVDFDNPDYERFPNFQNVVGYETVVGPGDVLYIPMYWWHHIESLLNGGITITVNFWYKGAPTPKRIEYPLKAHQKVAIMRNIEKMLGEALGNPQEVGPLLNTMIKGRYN
Experimental: (§1) JMJD2 assays were carried out as reported [13]. […] Initially, JMJD2, Fe(II), ascorbate and inhibitors were pre-incubated for 15 min prior to the addition of peptide and 2OG. The reaction was incubated for 30 min before 1∶1 quenching with methanol followed by addition of four volumes of 20 mM triammonium citrate. PHD2 and FIH assays were carried out as described [41], [42] with minor modifications. PHD2 assay consisted of PHD2 (1 µM), FAS (10 µM), SA (100 µM), 2OG (60 µM) and HIF-1α^556–574CODD peptide (50 µM), in 50 mM HEPES (pH 7.5) with varying concentrations of inhibitors (final DMSO concentration was 5%). Initially, PHD2, Fe(II), ascorbate and inhibitors were pre-incubated for 15 min prior to the addition of peptide and 2OG. The reaction was incubated for 30 min before 1∶1 quenching with 1% TFA followed by addition of three volumes of 20 mM triammonium citrate. FIH assay consisted of FIH (1 µM), FAS (10 µM), SA (100 µM), 2OG (100 µM) and HIF-1α^786–826CAD peptide (100 µM), in 50 mM HEPES (pH 7.5) with varying concentrations of inhibitors (final DMSO concentration was 5%). […] The diluted assay mixture (1 µL) from JMJD2 and PHD2 assays were mixed with 1 µL of α-cyano-4-hydroxycinnamic acid and 1 µL of FIH assay mixture was mixed with 1 µL of sinapinic acid matrix, and assessed by matrix-assisted laser desorption/ionization-time of flight (MALDI-TOF).
The target in data set [3] is T2, JMJD2A (Homo sapiens, UniProt O75164).
T2 sequence (O75164 1-359 limits assumed): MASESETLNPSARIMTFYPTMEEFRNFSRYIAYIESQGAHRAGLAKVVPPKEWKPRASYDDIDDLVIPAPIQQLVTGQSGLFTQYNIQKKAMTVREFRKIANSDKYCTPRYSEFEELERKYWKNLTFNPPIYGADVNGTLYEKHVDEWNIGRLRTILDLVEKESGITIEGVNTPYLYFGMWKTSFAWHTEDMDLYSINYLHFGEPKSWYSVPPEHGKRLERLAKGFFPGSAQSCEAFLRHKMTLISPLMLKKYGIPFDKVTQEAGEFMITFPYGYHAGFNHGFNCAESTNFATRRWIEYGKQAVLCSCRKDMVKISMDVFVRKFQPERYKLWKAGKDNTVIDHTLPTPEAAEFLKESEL
Kind of data set: MALDI-TOF MS demethylation assay, JMJD2A.
Experimental: as §1

The target in data set [4] is PHD2 (catalytic domain) (Homo sapiens, UniProt Q9GZT9). Kind of data set: MALDI-TOF MS peptide hydroxylation assay, PHD2.
PHD2 (catalytic domain), sequence (Q9GZT9 181-426 limits assumed): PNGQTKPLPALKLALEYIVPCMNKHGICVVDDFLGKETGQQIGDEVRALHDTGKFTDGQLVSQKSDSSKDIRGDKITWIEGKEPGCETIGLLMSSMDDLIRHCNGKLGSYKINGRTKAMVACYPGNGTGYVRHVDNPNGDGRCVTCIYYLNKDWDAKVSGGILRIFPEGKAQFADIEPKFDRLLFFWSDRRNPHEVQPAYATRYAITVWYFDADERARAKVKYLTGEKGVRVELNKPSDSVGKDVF
Experimental: as §1
For data set [5], the target named is T3, JMJD2E (KDM4E) (Homo sapiens, UniProt B2RXH2).
T3 construct: The catalytic domain of human JMJD2E (residues 1–337); His6 (N); made in house; host or cells: E. coli
T3 sequence (B2RXH2 1-337): T1 sequence (B2RXH2 1-337)
Kind of data set: qHTS fluorescence FDH-coupled JMJD2E demethylase assay. In kind it is biochemical. Particulars: Figure 3; substituted 8-hydroxyquinolines against JMJD2E; read-out: IC50 /μM (qHTS IC50, FDH-coupled assay). On the technique in general: In qHTS, concentration-response curves come from the screen itself.

The nature of data set [6]: Cytotoxicity, resazurin/resorufin (CellTiter-Blue). The conditions noted are these: human, HeLa cells. It is filed as cell-based. Background: Resazurin is reduced to fluorescent resorufin, in cell work by metabolically active cells.
Experimental: Cytotoxicity testing of the 5-carboxy-8HQ on HeLa cells was conducted with the resazurin/resorufin system for cellular metabolism.
Cytotoxicity testing was done with CellTiter-Blue (Promega) according to the manufacturer's directions.
Data set [7] addresses T4, JMJD2A (Homo sapiens, UniProt O75164).
T4 sequence (O75164 1-1064): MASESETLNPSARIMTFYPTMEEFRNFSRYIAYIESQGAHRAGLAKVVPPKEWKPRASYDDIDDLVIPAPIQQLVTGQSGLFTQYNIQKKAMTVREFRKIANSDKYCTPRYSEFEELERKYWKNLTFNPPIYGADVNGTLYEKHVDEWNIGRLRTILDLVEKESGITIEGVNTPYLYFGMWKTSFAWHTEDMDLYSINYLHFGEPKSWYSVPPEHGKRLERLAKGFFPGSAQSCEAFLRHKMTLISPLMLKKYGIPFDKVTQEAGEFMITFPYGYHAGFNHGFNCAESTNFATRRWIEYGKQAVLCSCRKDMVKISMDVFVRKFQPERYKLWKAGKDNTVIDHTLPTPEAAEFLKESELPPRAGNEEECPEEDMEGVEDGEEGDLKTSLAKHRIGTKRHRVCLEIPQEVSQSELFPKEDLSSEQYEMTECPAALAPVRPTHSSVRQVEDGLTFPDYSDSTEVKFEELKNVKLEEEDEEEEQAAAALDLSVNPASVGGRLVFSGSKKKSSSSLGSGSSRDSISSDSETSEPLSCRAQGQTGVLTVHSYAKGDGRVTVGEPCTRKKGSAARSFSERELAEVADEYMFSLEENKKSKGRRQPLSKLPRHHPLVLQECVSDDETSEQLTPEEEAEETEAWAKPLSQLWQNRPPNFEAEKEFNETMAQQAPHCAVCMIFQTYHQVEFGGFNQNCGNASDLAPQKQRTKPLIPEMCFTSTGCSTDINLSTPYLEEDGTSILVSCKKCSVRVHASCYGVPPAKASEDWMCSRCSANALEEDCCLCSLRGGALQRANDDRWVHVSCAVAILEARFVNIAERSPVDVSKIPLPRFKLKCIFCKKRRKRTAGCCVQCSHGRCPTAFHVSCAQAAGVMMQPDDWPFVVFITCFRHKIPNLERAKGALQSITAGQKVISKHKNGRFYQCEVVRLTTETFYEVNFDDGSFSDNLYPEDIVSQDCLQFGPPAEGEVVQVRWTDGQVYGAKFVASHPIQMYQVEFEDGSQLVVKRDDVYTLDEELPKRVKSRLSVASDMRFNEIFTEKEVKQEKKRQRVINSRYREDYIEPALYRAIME
Kind of data set: Cellular demethylase assay: H3K9me3 immunofluorescence in HeLa cells overexpressing Flag-JMJD2A. The conditions noted are these: 1mM treatment, 24 hr.
Text: Therefore, in order to automate this process a series of images were collected for each treatment on a standard epifluorescence microscope ( Figure 5A ) and then submitted to CellProfiler Software for analysis [29]. CellProfiler was configured to analyze the images for DAPI signal, a DNA stain, enabling the program to identify the location of individual cells and create a boundary that delineates the volume of the nuclear compartment. As not all cells in a given field are transfected, the Flag-JMJD2A-expressing cells were identified by quantifying the immunofluoresence signal resulting from the Flag antibody staining and using the mock transfected cells as a baseline for the signal intensity of non-transfected cells. Once the transfected cells were identified, the nuclear H3K9me3 immunofluorescence signal for each cell was quantified by CellProfiler. The levels of H3K9me3 staining intensity were analyzed in the DMSO vehicle treated or inhibitor treated samples. As a control and a means of determining maximal possible inhibition of demethylase activity, cells expressing the JMJD2A H188A catalytically deficient mutant were also quantified in each experiment. […] For each treatment a minimum of 400 transfected cells was analyzed and the final values of inhibition were derived from inhibition experiments carried out on three separate days (biological triplicates). […]

As to `Oc1ccc(CNc2ccccc2F)c2cccnc12` [SID 852641], the IC50 in data set [1] was determined as 6 µM; in data set [2], 19.6 µM; in data set [3], 8.2 µM; in data set [4] it was 14.4 µM; in data set [5] it was 1.1 µM.
In the case of `O=C(O)c1ccc(O)c2ncccc12` [SID 85736331, 5-carboxy-8-hydroxyquinoline], the results for the IC50 in data set [2] and in data set [6] were 20.5 µM and 292 µM, respectively.
Regarding `COC(=O)c1ccnc(C(=O)OC)c1` [dimethyl-2,4-PDCA], the “JMJD2A demethylase activity remaining” value in data set [7] is “approximately 35%”.
